± gives the standard deviation of the averaged measurements.
Each test system was assayed with CC(=O)c1c(C)c2cnc(Nc3ccc(N4CCNCC4)cn3)nc2n(C2CCCC2)c1=O (assay: surviving fraction relative to DMSO-only wells; higher = less growth inhibition). Settings: 0.5 nM; exposure time: 5 days.
Procedure, shortened: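 Lines were retained only if, across three screens, replicate Pearson r was >0.7 and median Z' was >0.3. Viability was measured as CellTiter-Glo luminescence and reported as surviving fraction relative to the median of DMSO-only wells. Readings followed 10 minutes at room temperature, after log-phase tumour cells seeded at 250–500 per well in 384-well plates had been exposed, from 24 hours after seeding, continuously for five days to inhibitors at 0.5, 1, 5, 10, 50, 100, 500 and 1000 nM.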

Test System	surviving fraction
JIMT1 BREAST	0.959 ± 0.013
LM7 BONE	0.997 ± 0.1
LNCAP PROSTATE	0.953 ± 0.0097
MDAMB134 BREAST	1.031 ± 0.0085
MDAMB157 BREAST	0.929 ± 0.05
MDAMB231 BREAST	0.994 ± 0.01
MDAMB361 BREAST	0.924 ± 0.046
MDAMB436 BREAST	0.912 ± 0.09
MDAMB468 BREAST	1.07 ± 0.03
MFM223 BREAST	1.17 ± 0.042
MG63 BONE	1.033 ± 0.0085
MHM BONE	1.01 ± 0.029
NCIH441 LUNG	1.16 ± 0.055
NOS1 BONE	0.935 ± 0.071
NY BONE	1.02 ± 0.024
OS25HAL BONE	1.03 ± 0.032
OSHN BONE	1.091 ± 0.005
RDES SOFT TISSUE	1.27 ± 0.17
SCC47 HEADNECK	1.12 ± 0.087
SCC90 HEADNECK	1.092 ± 0.0083

Test System	surviving fraction
SG27 HEADNECK	1.18 ± 0.081
SG28 HEADNECK	1.1 ± 0.069
SG31 HEADNECK	1.22 ± 0.17
SG32 HEADNECK	1.05 ± 0.16
SG43 HEADNECK	0.92 ± 0.039
SIHA CERVIX	1.09 ± 0.085
SJSA1 BONE	1 ± 0.037
SKBR3 BREAST	1.04 ± 0.16
SNU475 LIVER	1.02 ± 0.037
SUM44 BREAST	0.984 ± 0.044
SUM149.B1*.S BREAST	1.13 ± 0.034
SUM159 BREAST	0.932 ± 0.26
SYO1 SYNOVIAL	0.989 ± 0.024
T47D BREAST	1.05 ± 0.019
U2OS BONE	1.02 ± 0.044
VCAP PROSTATE	1.08 ± 0.018
VP229 BREAST	1.1 ± 0.1
YAMATO SYNOVIAL	1.2 ± 0.07
ZR751 BREAST	1.07 ± 0.19

Same assay, conditions: 1 nM; exposure time: 5 days

Test System	surviving fraction
JIMT1 BREAST	0.9905 ± 0.0018
LM7 BONE	0.98 ± 0.14
LNCAP PROSTATE	0.975 ± 0.087
MDAMB134 BREAST	1.07 ± 0.023
MDAMB157 BREAST	0.884 ± 0.027
MDAMB231 BREAST	1.03 ± 0.032
MDAMB361 BREAST	0.861 ± 0.13
MDAMB436 BREAST	0.888 ± 0.047
MDAMB468 BREAST	0.991 ± 0.044
MFM223 BREAST	1.13 ± 0.078
MG63 BONE	1.01 ± 0.044
MHM BONE	0.98 ± 0.018
NCIH441 LUNG	1.1 ± 0.056
NOS1 BONE	0.997 ± 0.15
NY BONE	1.03 ± 0.065
OS25HAL BONE	1.01 ± 0.0072
OSHN BONE	1.073 ± 0.0079
RDES SOFT TISSUE	1.18 ± 0.037
SCC47 HEADNECK	1.05 ± 0.03
SCC90 HEADNECK	1.1 ± 0.11

Test System	surviving fraction
SG27 HEADNECK	1.07 ± 0.1
SG28 HEADNECK	1.1 ± 0.13
SG31 HEADNECK	1.08 ± 0.19
SG32 HEADNECK	1.31 ± 0.3
SG43 HEADNECK	1 ± 0.12
SIHA CERVIX	1.12 ± 0.087
SJSA1 BONE	1.01 ± 0.099
SKBR3 BREAST	1.12 ± 0.066
SNU475 LIVER	1.01 ± 0.041
SUM44 BREAST	1.01 ± 0.028
SUM149.B1*.S BREAST	1.07 ± 0.013
SUM159 BREAST	0.942 ± 0.23
SYO1 SYNOVIAL	0.966 ± 0.021
T47D BREAST	1.039 ± 0.0056
U2OS BONE	1.01 ± 0.04
VCAP PROSTATE	1.08 ± 0.025
VP229 BREAST	1.05 ± 0.04
YAMATO SYNOVIAL	1.14 ± 0.065
ZR751 BREAST	1.07 ± 0.057

Same assay, conditions: 5 nM; exposure time: 5 days

Test System	surviving fraction
JIMT1 BREAST	0.993 ± 0.024
LM7 BONE	1.108 ± 0.011
LNCAP PROSTATE	0.854 ± 0.13
MDAMB134 BREAST	1.1 ± 0.013
MDAMB157 BREAST	0.974 ± 0.042
MDAMB231 BREAST	1.03 ± 0.014
MDAMB361 BREAST	0.882 ± 0.09
MDAMB436 BREAST	1.01 ± 0.054
MDAMB468 BREAST	1.07 ± 0.03
MFM223 BREAST	1.16 ± 0.11
MG63 BONE	1.039 ± 0.0042
MHM BONE	1.037 ± 0.0076
NCIH441 LUNG	1.064 ± 0.0076
NOS1 BONE	1.17 ± 0.086
NY BONE	1.05 ± 0.057
OS25HAL BONE	1.02 ± 0.011
OSHN BONE	1.09 ± 0.022
RDES SOFT TISSUE	1.23 ± 0.067
SCC47 HEADNECK	1.13 ± 0.072
SCC90 HEADNECK	1.12 ± 0.1

Test System	surviving fraction
SG27 HEADNECK	1.02 ± 0.025
SG28 HEADNECK	1.08 ± 0.15
SG31 HEADNECK	0.988 ± 0.21
SG32 HEADNECK	1.2 ± 0.11
SG43 HEADNECK	0.862 ± 0.16
SIHA CERVIX	1.17 ± 0.11
SJSA1 BONE	1.028 ± 0.0059
SKBR3 BREAST	0.958 ± 0.06
SNU475 LIVER	1.06 ± 0.026
SUM44 BREAST	1.03 ± 0.062
SUM149.B1*.S BREAST	1.11 ± 0.018
SUM159 BREAST	0.951 ± 0.18
SYO1 SYNOVIAL	0.984 ± 0.024
T47D BREAST	1.09 ± 0.022
U2OS BONE	1.06 ± 0.021
VCAP PROSTATE	1.14 ± 0.076
VP229 BREAST	1.06 ± 0.034
YAMATO SYNOVIAL	1.28 ± 0.11
ZR751 BREAST	0.923 ± 0.2

Same assay, conditions: 10 nM; exposure time: 5 days

Test System	surviving fraction
JIMT1 BREAST	0.964 ± 0.027
LM7 BONE	1.05 ± 0.032
LNCAP PROSTATE	0.857 ± 0.11
MDAMB134 BREAST	1.07 ± 0.04
MDAMB157 BREAST	0.973 ± 0.053
MDAMB231 BREAST	1.01 ± 0.031
MDAMB361 BREAST	0.825 ± 0.053
MDAMB436 BREAST	0.833 ± 0.032
MDAMB468 BREAST	1 ± 0.041
MFM223 BREAST	1.19 ± 0.062
MG63 BONE	1.04 ± 0.021
MHM BONE	1.03 ± 0.011
NCIH441 LUNG	1.07 ± 0.02
NOS1 BONE	0.969 ± 0.053
NY BONE	1.04 ± 0.018
OS25HAL BONE	1.04 ± 0.013
OSHN BONE	1.07 ± 0.018
RDES SOFT TISSUE	1.02 ± 0.19
SCC47 HEADNECK	1.1 ± 0.013

Test System	surviving fraction
SCC90 HEADNECK	1.15 ± 0.025
SG27 HEADNECK	0.956 ± 0.086
SG28 HEADNECK	0.955 ± 0.05
SG31 HEADNECK	0.911 ± 0.13
SG32 HEADNECK	1.09 ± 0.082
SG43 HEADNECK	0.855 ± 0.059
SIHA CERVIX	1.11 ± 0.041
SJSA1 BONE	1.04 ± 0.049
SKBR3 BREAST	0.987 ± 0.22
SNU475 LIVER	1.01 ± 0.073
SUM44 BREAST	0.956 ± 0.044
SUM149.B1*.S BREAST	1.07 ± 0.019
SUM159 BREAST	0.893 ± 0.28
SYO1 SYNOVIAL	1.02 ± 0.054
T47D BREAST	1.06 ± 0.022
U2OS BONE	1.06 ± 0.033
VCAP PROSTATE	1.17 ± 0.053
VP229 BREAST	0.852 ± 0.093
YAMATO SYNOVIAL	1.23 ± 0.14

From the supplement of paper PMC6045584
